From PMC3835742, “Lack of Plasma Kallikrein-Kinin System Cascade in Teleosts” (PLoS ONE, 2013)
“Also recorded” adds a separate entry of the source.

Assays:
[1] = system: polyclonal antiserum for [Arg^0]-BK; test: Radioimmunoassay (RIA) for [Arg^0, Trp^5, Leu^8]-bradykinin; assay type: binding, rabbit; details: for crossreactivity in the RIA: relative to [Arg^0]-BK standard, peptides serially diluted in RIA buffer, antiserum 1:10,000, 4 °C, 24 h
Method: [Arg^0, Trp^5, Leu^8]-bradykinin ([Arg^0]-BK: RRPPGWSPLR) was synthesized by Phoenix Pharmaceuticals Inc. (Burlingame, CA, USA). [Arg^0]-BK was N-terminally conjugated to thyroglobulin by the glutaraldehyde method. Briefly, 5 mg thyroglobulin was mixed with 1 mg [Arg^0]-BK in 4 mL PBS (pH 7.0) and glutaraldehyde was added to a final concentration of 0.05 %. The mixture was incubated at 25 °C for 1 h with gentle agitation and reaction was stopped by addition of 0.1 mL ethanolamine. The mixture was dialyzed against 1 L PBS overnight at 4 °C and protein concentration was determined. For each injection, 0.2 mg conjugated protein was used and three rabbits were first immunized with the conjugated protein in Freund’s complete adjuvant followed by two booster immunogen injections in Freund’s incomplete adjuvant. The interval between injections was 4 weeks and the rabbits were sacrificed for final bleeds 3 weeks after the third immunization.
Synthetic [Tyr^-1, Arg^0, Trp^5, Leu^8]-bradykinin (YRRPPGWSPLR) was radiolabeled by ^125I using the lactoperoxidase method and the iodinated peptide was purified by an HPLC system. The ^125I-BK was diluted in RIA buffer containing 0.1% RIA-grade bovine serum albumin to produce ~10,000 cpm per assay tube. The titers of the antiserum were determined by serial dilution and maximum binding was adjusted at 20 % of the total binding. […] Unbound fractions were removed by aspiration and specific binding in the pellet was measured using a gamma counter (Perkin Elmer, MA, USA). […]
(§1) To test the degradation rate of [Arg^0]-BK in plasma in vitro, 3 blood samples with inhibitor cocktail were prepared. […] The immunoreactive (ir)-[Arg^0]-BK was measured using the newly established RIA. […] The concentration of [Arg^0]-BK in the HPLC fractions were measured to determine the percentage recovery. Synthetic [Trp^5, Leu^8]-BK (BK) and [Arg^0, Trp^5, des-Leu^8, des-Arg^9]-bradykinin were serially diluted in RIA buffer and measured by RIA to determine the cross-reactivities among these closely related peptides.

[2] = Degradation rate of [Arg^0]-BK in plasma in vitro; assay type: in vitro ADME, Japanese eel; details: plasma with inhibitor cocktail (1,10-phenanthroline, potassium EDTA, aprotinin), spiked 3,000 fmol/mL, 25 °C, 0, 10 and 30 min, Sep-Pak extraction, RIA read-out, n = 3, Student t-test p > 0.05
Method: (§2) Juvenile, sexually immature Japanese eel (Anguilla japonica; 160 - 220 g), tilapia (Oreochromis niloticus; 50 - 100g), rainbow trout (Oncorhynchus mykiss; 100 - 200 g), and adult medaka of both sex (Oryzias latipes; 1.5 - 2.2 g) were kept in a freshwater recirculating aquarium system in the Atmosphere and Ocean Research Institute, the University of Tokyo. The water was maintained at 12 °C for trout, 18 °C for eel, 25 °C for tilapia, and 27 °C for medaka, and all animals were exposed to a 14/10 h light/dark cycle throughout the experiment. All animal experimental procedures were approved by the Animal Experiment Committee of the University of Tokyo. Fish were anesthetized by 0.1% ethyl 3-aminobenzoate methanesulfonate (Sigma, St. Louis, MO) neutralized with sodium bicarbonate. […]
as §1

eel = details: compared with BK, ref [14]; cited from earlier work
[3] = Spiking of pooled plasma, Sep-Pak/HPLC extraction and RIA (recovery and integrity); parameters: species or system Japanese eel; details: pooled eel plasma with inhibitor cocktail spiked to 300, 1000, 3000 fmol/mL, ir-BK profile by RIA
Method: as §2, with “Tokyo.” for “Tokyo. Fish were anesthetized by 0.1% ethyl 3-aminobenzoate methanesulfonate (Sigma, St. Louis, MO) neutralized with sodium bicarbonate.”
The plasma samples were purified by Sep-Pak C18 cartridge, with equilibration buffer (100 mM Tris-HCl, 0.5 M NaCl, pH 7.4) for binding and absolute methanol for elution. The partially purified plasma was further resolved by a reverse-phase HPLC system (Tosoh PU-980, Tokyo) attached to a UV-absorbance detector (Tosoh, UV-970, Tokyo) and utilizing an analytical column (ODS 100S column, 4.6 mm I.D. x 25 cm, C-18, 5 μm particle size, Tosoh, Tokyo). […]
To test the degradation rate of [Arg^0]-BK in plasma in vitro, 3 blood samples with inhibitor cocktail were prepared. […] The immunoreactive (ir)-[Arg^0]-BK was measured using the newly established RIA. […]

Substance	crossreactivity in the RIA [1]	ir-[Arg^0]-BK content after incubation in plasma [2]	potency in eliciting cardiovascular and antidipsogenic effects (eel)	EC50 ([1]; displacement of 125I-[Tyr^-1, Arg^0, Trp^5, Leu^8]-bradykinin tracer, antiserum 1:10,000, 4 °C for 24 h, gamma counter, measurements in duplicate)	integrity of spiked [Arg^0]-BK in plasma (conversion to BK) [3]
[Trp^5, Leu^8]-BK	71.3%				
[Arg^0, Trp^5, des-Leu^8, des-Arg^9]-bradykinin [[Arg^0, Trp^5, des-Leu^8, des-Arg^9]-BK]	negligible crossreactivity				
RRPPGWSPLR [[Arg^0]-BK, [Arg^0, Trp^5, Leu^8]-bradykinin, synthetic teleost decapeptide kinin, […], from Phoenix Pharmaceuticals]		did not alter the peptide contents; also recorded: not statistically different among various time points	more potent than BK	0.55 nM	remained as a single ir-peak; also recorded: remained intact
